Measured values as given in the METLIN SMRT retention time set (Domingo-Almenara et al. 2019).

Test: gradient 5% acetonitrile 3 min, to 50% in 2 min, to 85% in 15 min, held 3 min, 100 µL/min
Details: column: Zorbax Extend-C18 2.1 x 50 mm; eluents: water / acetonitrile, 0.1% formic acid
Outline: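 Mixtures of ~100 pure standards were chromatographed on a Zorbax Extend-C18 column (2.1 × 50 mm, 1.8 μm) at 100 μL/min using water and acetonitrile, each with 0.1% formic acid. Detection used a quadrupole time-of-flight mass spectrometer in positive and negative ionization mode, and data collection spanned 3 months. Retention time was obtained from adduct peaks picked computationally and each checked manually.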

Compound	RP-LC retention time [s]
Cc1ccc(-c2noc(-c3ccccc3S(=O)(=O)N3CC=C(c4ccccc4)CC3)n2)cc1	1350
COCC(=O)N(CC(=O)N1CCc2sccc2C1COc1cccc(OC)c1)CC(C)C (stereo unspecified)	894
Cc1cc2[nH]c(C(=O)Nc3cc(F)c(F)cc3F)c(CN3CCCC3)c2s1	864
Cc1c(Cl)cccc1NC(=O)N1CCc2c(c(COc3ccccc3)nn2C)C1	891
CCc1nccn1Cc1nc(-c2ccc(C(F)(F)F)cc2)no1	700
O=S(=O)(NCCS(=O)(=O)N1CCc2ccccc21)c1cccnc1	700
O=C(Cn1nc(S(=O)(=O)c2cccc(F)c2)ccc1=O)N1CCN(c2ccccc2)CC1	802
CC(C(=O)N1CCC(N2CCCCC2)CC1)C1CCN(S(=O)(=O)c2cccs2)CC1 (stereo unspecified)	627
CCc1ccc(NC(=O)C2CCN(S(=O)(=O)c3cc(-c4noc(CC)n4)cs3)CC2)cc1	660
C#Cc1cccc(Nc2ncnc3cc(OC)c(OCCCCCCC(=O)NO)cc23)c1	707
COCCOC(=O)c1cn(-c2cccc(OC)c2)c(=O)c2ccccc12	902
COc1ccccc1C(=O)Nc1cnc(N2CCCC2)nc1	731
O=C1N(c2cccc(F)c2)c2ncccc2S(=O)(=O)N1Cc1ccccc1	1020
CCC(C)NC(=O)CCC(=O)N1CCc2c(c(C(=O)N3CCCCC3)nn2C)C1 (stereo unspecified)	645
O=S(=O)(c1cc(-c2nnc(C3CCC3)o2)co1)N1CCN(c2cccc(Cl)c2)CC1	1120
O=C(Cc1ccc(Br)cc1)NC1CCN(c2cc(-c3cccs3)[nH]n2)C1 (stereo unspecified)	767
CC(=O)Nc1ccc(NC(=O)CCNc2c(-c3ccc(F)cc3)nc3cnccn23)cc1	630
CCCNC(=O)c1cnn(-c2cc(-c3nc(C4CC4)no3)ccn2)c1C	911
CCc1nn2c(CNC(=O)c3cc(Cl)ccc3OC)c(C)nc2s1	659
CCOc1cccc(-c2noc(CCn3nc(-c4ccc(F)cc4)ccc3=O)n2)c1	1060
O=C1[C@H]2CN(Cc3cccc(F)c3)C[C@H]2C(=O)N1CCc1ccccc1	804
CC(C)Cn1c(=O)c2cc(C(=O)N3CCSCC3)nn2c2ccccc21	955

Compound	RP-LC retention time [s]
CN(C)C(CNS(=O)(=O)c1ccc(Cl)cc1)c1ccccc1 (stereo unspecified)	652
Cc1ccc(OCc2nn3c(COc4ccc(F)cc4)nnc3s2)cc1C	1100
Cc1ccc(Cn2c(=O)c3sccc3n(Cc3nc(-c4ccc(OC(C)C)cc4)no3)c2=O)cc1	1280
O=C(Nc1c(-c2ccccc2)nc2ccc(Cl)cn12)c1cccs1	735
CC(C)Sc1ccc(CC(=O)NCC2CCN(C(=O)Nc3ccc(F)cc3)CC2)cc1	860
COc1ccc(NC(=O)N2CCCC(Cn3cnc4cccnc43)C2)c(OC)c1 (stereo unspecified)	651
CC1(C)CC(=O)c2cn(-c3ccccc3)c(=O)c(C(=O)N3CCOCC3)c2C1	694
O=C(Nc1cc(F)ccc1F)c1c(O)c2cccnc2n(-c2ccc(F)cc2)c1=O	1270
COc1ccc(-c2cn3c(CC(=O)Nc4ccc5c(c4)OCCO5)csc3n2)cc1OC	684
O=c1oc2cc(O)c(Cl)cc2c2ccccc12	847
Cc1cccc(CS(=O)(=O)N(CCc2cccs2)Cc2cccnc2)c1	691
O=C(Cn1ncn2c(cc3cc(F)ccc32)c1=O)N1CCN(c2ccccn2)CC1	605
COc1ccc(-c2nc3cc(C)ccn3c2NC(=O)c2ccc(Br)cc2)cc1	727
O=C(Nc1cccnc1)C1CCCN(c2ncnc3c2nc2n3CCCCC2)C1 (stereo unspecified)	603
O=S(=O)(NCCC1=CCCCC1)c1cccc(-c2nc(-c3ccccc3)no2)c1	1360
COc1cccc(CNC(=O)C2(C)CCCN(C(=O)Nc3ccc(C)cc3C)C2)c1 (stereo unspecified)	930
O=c1ccc(-c2ccccc2)nn1CCc1nc(-c2ccc(F)cc2)no1	970
COc1cccc(NC(=O)NCC2CC(=O)N(Cc3ccc(F)cc3)C2)c1OC (stereo unspecified)	695
CCN(CC)CCNS(=O)(=O)c1cc(-c2nc(C)c(C)s2)sc1C	656
CCC(=O)n1nc(-c2ccccc2C)nc1N	875
CC(C)CCNC(=O)CN1C(=O)CC(c2cccs2)=Nc2ccccc21	888
CN(C)c1ncncc1N1CCC(C(=O)NC2CCCCC2)CC1	607

Compound	RP-LC retention time [s]
CCOC(=O)C(CC)Sc1ccc(NC(=O)c2cccs2)nn1 (stereo unspecified)	908
O=C(C1CCCN(c2ncnc3c2nc2n3CCCCC2)C1)N1CCCCC1 (stereo unspecified)	713
O=C(C1CCCCCC1)N1CCC2(CC1)CC(O)CCO2 (stereo unspecified)	681
CCNC(=O)CC1=C2CCCCC2NC1=O (stereo unspecified)	592
O=P(Oc1ccccc1)(Oc1ccccc1)c1ccccc1	1070
CCOC(=O)c1[nH]c(C)c(C(=O)N(Cc2ccccc2)C(C)C)c1C	860
CCC(C)C(=O)N1CCCN(C2=NS(=O)(=O)C(c3ccc(C)cc3)=C2C)CC1 (stereo unspecified)	828
Cc1cccc(-c2nnc(-c3cccc(S(=O)(=O)N4CCCC4)c3)o2)c1	1050
Cc1cc2cc(CNC(=O)C(=O)c3c[nH]c4ccccc34)ccc2[nH]1	878
COCc1cnc2c(c1SCc1ccc(C)cc1)c(=O)n(C)c(=O)n2C	1060
CCCn1cc(S(=O)(=O)Nc2ccc(F)cc2)c2cccnc21	858
CSc1cccc(NC(=O)N(C)Cc2nc3cc(C(=O)N(C)C)ccc3n2C)c1	626
CC(C)NC(=O)CN1CCN(c2cc(C(=O)O)c3cc(NC(=O)c4ccccc4F)ccc3n2)CC1	594
CCC(=O)c1cn(CC(=O)NCc2cc3c(cc2OC)OCCCO3)c2ccccc12	837
O=C(c1ccncc1)N1CCCC(c2nc(-c3ccc(F)cc3)n[nH]2)C1 (stereo unspecified)	614
CCc1ccc(S(=O)(=O)N2CCN(CCc3cn(C)c4ncccc34)CC2)cc1	668
Cc1cc(C)cc(NC(=O)Cc2nnc(-c3cnccn3)o2)c1	729
Cc1nc(-c2ccc(N3CCN(C(=O)c4n[nH]c5ccccc45)CC3)nc2)sc1C	864
Cn1cc(-c2cc3n(n2)CCCN3C(=O)CCC(=O)NC2CCCCC2)c2ccccc21	837
O=C(CSc1nc(N2CCCCC2)nc2ccccc12)Nc1ccc2c(c1)OCO2	694
O=C(O)c1cc2c(s1)CCN(C(=O)c1ccc(Cl)cc1)C2	736
Cc1cccc(N2CCN(c3cc(C(=O)O)c4cc(NC(=O)C5CCC5)ccc4n3)CC2)c1C	777
